# According to patent US8507411B2, “Neoglycorandomization and digitoxin analogs” (priority 2004, dated 2013):
# Key:
# [1] = system: Du145; test: High-throughput calcein AM cytotoxicity assay, Du145; format: cell-based, human; conditions: Du145 cells; read-out: IC50
# Excerpt: (§1) Standard errors are depicted with error bars.
# [2] = system: MCF7; test: High-throughput calcein AM cytotoxicity assay, MCF7; format: cell-based, human; conditions: MCF7 cells; read-out: IC50
# Excerpt: as §1
# [3] = system: HCT-116; test: High-throughput calcein AM cytotoxicity assay, HCT-116; format: cell-based, human; conditions: HCT-116 cells; read-out: IC50
# Excerpt: as §1
# [4] = system: Hep3B; test: High-throughput calcein AM cytotoxicity assay, Hep3B; format: cell-based, human; conditions: Hep 3B cells; read-out: IC50
# Excerpt: as §1
# [5] = system: NCI-H460; test: High-throughput calcein AM cytotoxicity assay, NCI-H460; format: cell-based, human; conditions: NCI-H460 cells; read-out: IC50
# Excerpt: as §1
# [6] = system: A549; test: High-throughput calcein AM cytotoxicity assay, A549; format: cell-based, human; conditions: A549 cells; read-out: IC50
# Excerpt: as §1
# [7] = system: NCI/ADR-RES; test: cells; format: cell-based, human; conditions: NCI/ADR-RES cells; read-out: IC50
# Outline: (§2)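 Viability read-out: esterase conversion of calcein AM to fluorescent calcein in live cells (ex 485, em 535 nm), 30 min at 37 °C after 72 h compound exposure. Human lines grown in RPMI 1640/10% FBS; NmuMG in DMEM/10% FBS with 10 μg/ml insulin. IC50s fit with variable Hill slope.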
# [8] = system: SF-268; test: cells; format: cell-based, human; conditions: SF-268 cells; read-out: IC50
# Outline: as §2
# [9] = system: SK-OV-3; test: cells; format: cell-based, human; conditions: SK-OV-3 cells; read-out: IC50
# Outline: as §2
# [10] = system: NmuMG; test: cells; format: cell-based, mouse; conditions: NmuMG cells (mouse mammary normal epithelial control line); read-out: IC50
# Outline: as §2
# [11] = Hydrolytic stability of the neoglycosidic linkage; format: physicochemical; conditions: 3 mM in 1:1 DMSO/buffer, one month
# Protocol: FIG. 4 is a graphic representation of the results of studies on the hydrolytic stability of neoglycoside 4α. The chemical stability of the neoglycosidic linkage was examined by monitoring the hydrolytic degradation of neoglycoside 4α in a 3 mM solution of 1:1 DMSO/buffer. Three buffers were used, 50 mM acetate buffer (pH 5), 50 mM phosphate buffer (pH 7), and 50 mM Tris buffer (pH 9). Neoglycoside degradation was monitored by reverse phase HPLC on an Agilent Zorbax Eclipse XDB-C8 column (4.6×150 mm) with a flow rate of 0.8 mL min^−1 and a linear gradient of 49% CH3OH/H2O to 89% CH3OH/H2O over 20 min. At t=0, neoglycoside 4α in 500 μL DMSO was added to 500 μL buffer, and the resulting solution was vortexed for 40 sec, then immediately injected onto the HPLC. Peak areas at 220 nm were used to estimate the neoglycoside/aglycon ratio, which is reported as “percent neoglycoside remaining” [Aneoglycoside/(Aneoglycoside+Aaglycon)] for each of the three buffer systems.
# Hydrolytic Stability of 4α. The chemical stability of the neoglycosidic linkage was examined by monitoring the hydrolytic degradation of neoglycoside 4α in a 3 mM solution of 1:1 DMSO/buffer. Three buffers were used, 50 mM acetate buffer (pH 5), 50 mM phosphate buffer (pH 7), and 50 mM Tris buffer (pH 9). Neoglycoside degradation was monitored by reverse phase HPLC on an Agilent Zorbax Eclipse XDB-C8 column (4.6×150 mm) with a flow rate of 0.8 mL min^−1 and a linear gradient of 49% CH3OH/H2O to 89% CH3OH/H2O over 20 min. At t=0, neoglycoside 4α in 500 μL DMSO was added to 500 μL buffer, and the resulting solution was vortexed for 40 sec, then immediately injected onto the HPLC. Peak areas at 220 nm were used to estimate the neoglycoside/aglycon ratio, which is reported as “percent neoglycoside remaining” [Aneoglycoside/(Aneoglycoside+Aaglycon)] for each of the three buffer systems (see FIG. 4).
# The chemical stability of the neoglycosidic linkage was examined by monitoring the hydrolytic degradation of neoglycoside 4α in a 3 mM solution of 1:1 DMSO/buffer using buffers at three different pHs.
compound,measurement,setting,value
"CON([C@@H]1CC[C@@]2(C)[C@H](CC[C@@H]3[C@@H]2CC[C@]2(C)[C@@H](C4=CC(=O)OC4)CC[C@]32O)C1)[C@@H]1O[C@H](CO)[C@@H](O)[C@H](O)[C@H]1O [4α, D-glucoside]",IC50,[1],> 25 µM
same,IC50,[2],> 25 µM
same,IC50,[3],> 25 µM
same,IC50,[4],> 25 µM
same,IC50,[5],> 25 µM
same,IC50,[6],> 25 µM
same,IC50,[7],> 25 µM
same,IC50,[8],> 25 µM
same,IC50,[9],> 25 µM
same,IC50,[10],> 25 µM
same,hydrolytic stability,[11]; acidic conditions (pH 5),slowly hydrolyzed
same,hydrolytic stability,"[11]; neutral or basic conditions (pH 7, pH 9)",completely stable
